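Tested at 5 concentrations; 48 h exposure; 96-well plates; endpoints linearly interpolated, else capped at highest concentration. TGI: total growth inhibition.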
Key:
Experiment in all cases: inhibition of tumour cell growth, NCI panel, 48 h
[1] = test system: 786-0 renal
[2] = test system: A498 renal
[3] = test system: A549 NSCLC
[4] = test system: ACHN renal
[5] = test system: BT-549 breast
[6] = test system: CAKI-1 renal
[7] = test system: CCRF-CEM leukemia
[8] = test system: COLO 205 colon
[9] = test system: DU-145 prostate
[10] = test system: EKVX NSCLC
[11] = test system: HCC-2998 colon
[12] = test system: HCT-116 colon
[13] = test system: HCT-15 colon
[14] = test system: HOP-62 NSCLC
[15] = test system: HOP-92 NSCLC
[16] = test system: HS 578T breast
[17] = test system: HT29 colon
[18] = test system: IGROV1 ovarian
[19] = test system: K-562 leukemia
[20] = test system: KM12 colon
[21] = test system: LOX IMVI melanoma
[22] = test system: M14 melanoma
[23] = test system: MALME-3M melanoma
[24] = test system: MCF7 breast
[25] = test system: MDA-MB-231 breast
[26] = test system: MDA-MB-435
[27] = test system: MDA-N
[28] = test system: MOLT-4 leukemia
[29] = test system: NCI-H226 lung
[30] = test system: NCI-H23 lung
[31] = test system: NCI-H460 lung
[32] = test system: NCI-H522 lung
[33] = test system: NCI/ADR-RES ovarian
[34] = test system: OVCAR-3 ovarian
[35] = test system: OVCAR-4 ovarian
[36] = test system: OVCAR-5 ovarian
[37] = test system: OVCAR-8 ovarian
[38] = test system: PC-3 prostate
[39] = test system: RPMI-8226 leukemia
[40] = test system: SF-268 CNS
[41] = test system: SF-295 CNS
[42] = test system: SK-MEL-2 melanoma
[43] = test system: SK-MEL-28 melanoma
[44] = test system: SK-MEL-5 melanoma
[45] = test system: SK-OV-3 ovarian
[46] = test system: SN12C renal
[47] = test system: SNB-19 CNS
[48] = test system: SNB-75 CNS
[49] = test system: SR leukemia
[50] = test system: SW-620 colon
[51] = test system: T-47D breast
[52] = test system: TK-10 renal
[53] = test system: U251 CNS
[54] = test system: UACC-257 melanoma
[55] = test system: UACC-62 melanoma
[56] = test system: UO-31 renal
[57] = test system: HL-60(TB) leukemia
[58] = test system: SF-539 CNS

Measured: TGI

COc1ccc(-n2cnc3c(NCC(=O)O)ncnc32)cc1
not listed: [57] | [58]
> 100 µM: all other assays above

CC(CO)(CO)N1C(=O)C2C3c4ccccc4C(c4ccccc43)C2C1=O (stereo not given)
not listed: [10] | [15] | [21] | [35] | [39]
> 100 µM: all other assays above

CCOP(=O)(OCC)/C(C#N)=C/c1nccn1C
not listed: [6] | [18] | [23] | [35] | [44] | [45] | [55]
> 100 µM: all other assays above
